Experimental data published in patent US20040029886A1, “Dihalopropene compounds, processes for their preparation, compositions comprising them and their use as pesticides” (priority 2001, published 2004).

Legend:
Assay type in all cases: in vivo
Parameters in all cases: key: compounds are considered to be active when, at a concentration of 500 ppm or less, their action on the harmful organisms is 50% or more
[1] = test system: eggs of the American tobacco budworm (Heliothis virescens); test: Example C: eggs of American tobacco budworm, Petri dish with culture medium; conditions: 500 ppm or less; eggs dipped 5 seconds, 200 μl on culture medium; after 6 days
Method: (§1) In Examples A to L below, compounds are considered to be active when, at a concentration of 500 ppm or less, their action on the harmful organisms is 50% or more.
A Petri dish whose bottom was covered with filter paper and which contained about 5 ml of culture medium was prepared. Pieces of filter paper with about 30, one-day-old eggs of the American tobacco budworm (Heliothis virescens) were dipped for 5 seconds into an aqueous solution of the formulated preparation to be examined and subsequently placed in a Petri dish. A further 200 μl of the aqueous solution were spread over the culture medium. The Petri dish was closed and then stored at about 25° C. in a climatized chamber. After 6 days of storage, the effect of the preparation on the eggs and any larvae which may have hatched from these (mortality) was determined. The following examples were active: Nos. 6, 27, 28, 29, 31, 35, 39, 43, 45, 59, 97, 226, 227, 228, 229, 351, 356, 357, 592, 593, 595, 949, 1001, 1126, 1129, 1132.

[2] = test system: larvae of the root gall nematode (Meloidogyne incognita); test: Example F: root gall nematode, contact action (part A) and soil drench action on cucumber (part B); conditions: 500 ppm or less; part A 6 days exposure, part B root galls on cucumber after 2 weeks (Abbott's formula)
Method: as §1
Part A of the examination (contact action): in a glass vessel, an aqueous solution of the formulated preparation to be examined was added to about 5000 freshly hatched active (mobile) larvae (2nd development stage) of the root gall nematode (Meloidogyne incognita) (final volume 20 ml). After 6 days of permanent exposure of the nematode larvae, the percentage of the individual larvae immobilized by the action of the preparation was determined in comparison to the untreated controls (nematicidal contact action in percent).
Part B of the examination (soil drench action): to this end, the entire solution from part A of the examination (active compound and pre-treated nematode larvae) was poured into a pot, filled with 60 ml of soil, into which three 9-day-old cucumber plants (Cucumis sativus) had been planted. This drench application reduced the active compound content based on the soil volume to one third of the active compound content in part A of the examination. After 2 weeks in a greenhouse at about 26° C. (watering: twice a day), the root balls of the cucumber plants were carefully washed out of the soil mixture contaminated with nematodes. The number of root galls per plant was counted and compared to the infection of untreated control plants. The reduction of the infection in percent as a criterion for the assessment of the activity was calculated using Abbott's formula (nematicidal soil drench action). The following examples were active: Nos. 6, 7, 29, 32, 34, 44, 356.

[3] = test system: eggs of the corn rootworm (Diabrotica undecimpunctata); test: Example E: eggs of corn rootworm, Petri dish with maize corn; conditions: 500 ppm or less, after 6 days
Method: as §1
A Petri dish, half of whose bottom was covered with filter paper and which contained a germinated maize corn on a moist cotton pad, was prepared. About 50, 4-5 day-old eggs of the corn rootworm (Diabrotica undecimpunctata) were transferred onto the filter paper. Three drops of 200 μl of an aqueous solution of the formulated preparation to be examined were pipetted onto the eggs, and the rest was pipetted onto the maize corn. The Petri dish was closed and then stored at about 25° C. in a climatized chamber. After 6 days of storage, the effect of the preparation on the eggs and any larvae which may have hatched from these (mortality) was determined. The following examples were active: No. 7.

[4] = test system: L2 larvae of the Egyptian cotton leaf worm (Spodoptera littoralis); test: Example D: L2 larvae of Egyptian cotton leaf worm, Petri dish with culture medium; conditions: 500 ppm or less, after 6 days
Method: as §1
A Petri dish whose bottom was covered with filter paper and which contained about 5 ml of culture medium was prepared. Five L2 larvae of the Egyptian cotton leaf worm (Spodoptera littoralis) were counted into small beakers. 200 μl of an aqueous solution of the formulated preparation to be examined were pipetted into the beaker. The treated larvae were then poured into the Petri dish, and a further 200 μl of the aqueous solution were distributed over the culture medium. The Petri dish was closed and then stored at about 25° C. in a climatized chamber. After 6 days of storage, the effect of the preparation on the larvae (mortality) was determined. The following examples were active: Nos. 27, 28, 29, 39, 43, 45, 59.

[5] = test system: L2 larvae of the sugar beet armyworm (Spodoptera exigua); test: Example H: L2 larvae of sugar beet armyworm, Petri dish with culture medium; conditions: 500 ppm or less, after 6 days
Method: as §1
A Petri dish whose bottom was covered with filter paper and which contained […] of culture medium was prepared. Five L2 larvae of the sugar beet armyworm (Spodoptera exigua) were counted into a small beaker. 200 μl of an aqueous solution of the formulated preparation to be examined were pipetted into the beaker. The treated larvae were then poured into the Petri dish and a further 200 μl of the aqueous solution were distributed over the culture medium. The Petri dish was closed and then stored at 25° C. in a climatized chamber. After 6 days of storage, the effect of the preparation on the larvae (mortality) was determined. The following examples were active: Nos. 31, 97, 226, 227, 228, 229, 351, 356, 357, 592, 593, 595, 949, 1001, 1126, 1129, 1132.

[6] = test system: black bean aphids (Aphis fabae); test: Example B: black bean aphids on field bean, dip treatment; conditions: 500 ppm or less; plants and aphids dipped 5 seconds; after 3 and 6 days
Text: as §1
Germinated field bean seeds (Vicia faba) with radicles were transferred into brown glass bottles filled with tap water and subsequently populated with approximately 100 black bean aphids (Aphis fabae). Plants and aphids were then dipped for 5 seconds into an aqueous solution of the formulated preparation to be examined. After the solution had run off, plants and animals were stored in an acclimatized chamber (16 hours of light/day, 25° C., 40-60% relative atmospheric humidity). After 3 and 6 days of storage, the effect of the preparation on the aphids (mortality) was determined. The following examples were active: Nos. 33, 36, 357, 1126.

[7] = test system: spider mites (Tetranychus urticae); test: Example A: spider mites on bean leaf, dip treatment; conditions: 500 ppm or less; leaf and mites dipped 5 seconds; after 6 days
Text: as §1
Cut stems of bean plants (Phaseolus vulgaris) carrying one leaf were transferred into brown glass bottles filled with tap water and subsequently populated with approximately 100 spider mites (Tetranychus urticae). The plant leaf and the spider mites were then dipped for 5 seconds into an aqueous solution of the formulated preparation to be examined. After the solution had run off, plants and animals were stored in a climatized chamber (16 hours of light/day, 25° C., 40-60% relative atmospheric humidity). After 6 days of storage, the effect of the preparation on all stages of the spider mites was determined. The following examples were active: Nos. 43, 45, 97, 1132.

[8] = test system: L2 larvae of the sugar beet armyworm (Spodoptera exigua); test: Example I: sugar beet armyworm L2 larvae on sprayed cotton leaves; conditions: 500 ppm or less, after 4 days
Method: as §1
Cotton plants were sprayed with an aqueous solution of the formulated preparation to be examined. After drying, leaves were cut off, placed into a Petri dish and populated with 5 L2 larvae of the sugar beet armyworm (Spodoptera exigua). After 4 days of storage at about 23° C., the effect of the preparation on the larvae (mortality) was determined. The following examples were active: Nos. 27, 28, 45, 59.

[9] = test system: larvae of the diamondback moth (Plutella xylostella); test: Example L: diamondback moth larvae on sprayed cabbage leaf; conditions: 500 ppm or less, after 4 days
Method: as §1
A cabbage leaf was sprayed with an aqueous solution of the formulated preparation to be examined. After drying, the treated leaf was populated with larvae of the diamondback moth (Plutella xylostella). After 4 days of storage at about 25° C., the effect of the preparation on the larvae (mortality) was determined. The following examples were active: Nos. 27, 28, 45.

Question: Which “effect of the preparation on the eggs and any larvae hatched (mortality)” value [1] does the source give for `CC(=O)c1cc(OCC=C(Cl)Cl)cc(Cl)c1OCCCc1ccc(Cl)cc1` [compound 6] here?
Answer: The value was “active”.

Question: What about the “nematicidal contact action / nematicidal soil drench action” value [2] of the same molecule?
Answer: The value was “active”.

Question: Which “effect of the preparation on the eggs and any larvae hatched (mortality)” value [3] does the source give for `COC(=O)c1cc(OCC=C(Cl)Cl)cc(Cl)c1OCCCc1ccc(Cl)cc1` [compound 7] here?
Answer: The value was “active”.

Question: What about the “nematicidal contact action / nematicidal soil drench action” value [2] of the same molecule?
Answer: The value was “active”.

Question: `CON=C(C)c1cc(OCC=C(Cl)Cl)cc(Cl)c1OCCCOc1ccc(C(F)(F)F)cn1` [compound 29] was tested. Which “effect of the preparation on the eggs and any larvae hatched (mortality)” value [1] did it give?
Answer: The value was “active”.

Question: And the “effect of the preparation on the larvae (mortality)” value (shortened to “effect … on the larvae (mortality)”) [4]?
Answer: Its value is “active”.

Question: What about the “nematicidal contact action / nematicidal soil drench action” value [2] of the same molecule?
Answer: The value was “active”.

Question: For `NC(=S)c1cc(OCC=C(Cl)Cl)cc(Cl)c1OCCCOc1ccc(C(F)(F)F)cn1` [compound 31], which “effect of the preparation on the eggs and any larvae hatched (mortality)” value [1] is on record?
Answer: Its value is “active”.

Question: And the “effect … on the larvae (mortality)” value [5]?
Answer: The value was “active”.

Question: For `CC(CO)NC(=O)c1cc(OCC=C(Cl)Cl)cc(Cl)c1OCCCOc1ccc(C(F)(F)F)cn1` (stereo not drawn) [compound 32], which “nematicidal contact action / nematicidal soil drench action” value [2] is on record?
Answer: The value was “active”.

Question: How did the “nematicidal contact action / nematicidal soil drench action” value [2] turn out when `CCNC(=O)c1cc(OCC=C(Cl)Cl)cc(Cl)c1OCCCOc1ccc(C(F)(F)F)cn1` [compound 34] was run?
Answer: Its value is “active”.

Question: How did the “effect of the preparation on the eggs and any larvae hatched (mortality)” value [1] turn out when `CON(C)C(=O)c1cc(OCC=C(Cl)Cl)cc(Cl)c1OCCCOc1ccc(C(F)(F)F)cn1` [compound 35] was run?
Answer: The value was “active”.

Question: `CN(C)C(=O)c1cc(OCC=C(Cl)Cl)cc(Cl)c1OCCCOc1ccc(C(F)(F)F)cn1` [compound 36] was tested. Which “effect of the preparation on the aphids (mortality)” value [6] did it give?
Answer: Its value is “active”.

Question: What does the source list for `CC(=O)c1cc(OCC=C(Cl)Cl)cc(Cl)c1OCCCCOc1ncc(Cl)cc1Cl` [compound 43]?
Answer: effect of the preparation on all stages of the spider mites [7]: active; effect of the preparation on the eggs and any larvae hatched (mortality) [1]: active; effect of the preparation on the larvae (mortality) [4]: active

Question: With `CC(=NO)c1cc(OCC=C(Cl)Cl)cc(Cl)c1OCCCCOc1ncc(Cl)cc1Cl` [compound 44] as the molecule, how does the “nematicidal contact action / nematicidal soil drench action” value [2] read?
Answer: Its value is “active”.

Question: Which results are given for `CON=C(C)c1cc(OCC=C(Cl)Cl)cc(Cl)c1OCCCCOc1ncc(Cl)cc1Cl` [compound 45]?
Answer: effect of the preparation on all stages of the spider mites [7]: active; effect of the preparation on the eggs and any larvae hatched (mortality) [1]: active; effect of the preparation on the larvae (mortality) [4]: active; effect of the preparation on the larvae (mortality) [8]: active; effect of the preparation on the larvae (mortality) [9]: active

Question: What does the source list for `OCC#Cc1cc(OCC=C(Cl)Cl)cc(Cl)c1OCCCOc1ccc(C(F)(F)F)cn1` [compound 227]?
Answer: effect of the preparation on the eggs and any larvae hatched (mortality) [1]: active; effect of the preparation on the larvae (mortality) [5]: active

Question: For `COCC#Cc1cc(OCC=C(Cl)Cl)cc(Cl)c1OCCCOc1ccc(C(F)(F)F)cn1` [compound 228], which “effect of the preparation on the eggs and any larvae hatched (mortality)” value [1] is on record?
Answer: The value was “active”.

Question: What about the “effect … on the larvae (mortality)” value [5] of the same molecule?
Answer: The value was “active”.

Question: Which “effect of the preparation on the eggs and any larvae hatched (mortality)” value [1] does the source give for `C#Cc1cc(OCC=C(Cl)Cl)cc(Cl)c1OCCCOc1ccc(C(F)(F)F)cn1` [compound 229] here?
Answer: The value was “active”.

Question: And the “effect … on the larvae (mortality)” value [5]?
Answer: The value was “active”.

Question: What does the source list for `CSCc1noc(-c2cc(OCC=C(Cl)Cl)cc(Cl)c2OCCCOc2ccc(C(F)(F)F)cn2)n1` [compound 351]?
Answer: effect of the preparation on the eggs and any larvae hatched (mortality) [1]: active; effect of the preparation on the larvae (mortality) [5]: active

Question: Which “effect of the preparation on the aphids (mortality)” value [6] does the source give for `Cc1noc(-c2cc(OCC=C(Cl)Cl)cc(Cl)c2OCCCOc2ccc(C(F)(F)F)cn2)n1` [compound 357] here?
Answer: The value was “active”.

Question: And the “effect of the preparation on the eggs and any larvae hatched (mortality)” value [1]?
Answer: The value was “active”.

Question: And the “effect … on the larvae (mortality)” value [5]?
Answer: Its value is “active”.

Question: How did the “effect of the preparation on the eggs and any larvae hatched (mortality)” value [1] turn out when `CCOC(=O)C=Cc1cc(OCC=C(Cl)Cl)cc(Cl)c1OCCCOc1ccc(C(F)(F)F)cn1` [compound 592] was run?
Answer: The value was “active”.

Question: What about the “effect … on the larvae (mortality)” value [5] of the same molecule?
Answer: Its value is “active”.

Question: Which results are given for `COC(=O)C=Cc1cc(OCC=C(Cl)Cl)cc(Cl)c1OCCCOc1ccc(C(F)(F)F)cn1` [compound 593]?
Answer: effect of the preparation on the eggs and any larvae hatched (mortality) [1]: active; effect of the preparation on the larvae (mortality) [5]: active

Question: For `C=Cc1cc(OCC=C(Cl)Cl)cc(Cl)c1OCCCOc1ccc(C(F)(F)F)cn1` [compound 595], which “effect of the preparation on the eggs and any larvae hatched (mortality)” value [1] is on record?
Answer: Its value is “active”.

Question: And the “effect … on the larvae (mortality)” value [5]?
Answer: Its value is “active”.
